Results on nine compounds are retold here after patent publication US20080132509A1, “Substituted Biaryl Analogues” (Neurogen Corporation, priority 2004, published 2008).

What is called IC50 is the concentration that gives 50% inhibition. In general, EC50 refers to the concentration needed to bring the measured effect to its halfway point. As usually defined, the Ki is a dissociation constant, usually derived from enzyme kinetics or from competition with a known ligand.

For the first experiment, the target named is T1, human capsaicin receptor (Homo sapiens, UniProt Q8NER1).
T1 construct: expressed in transfected cells
T1 sequence (Q8NER1 whole entry): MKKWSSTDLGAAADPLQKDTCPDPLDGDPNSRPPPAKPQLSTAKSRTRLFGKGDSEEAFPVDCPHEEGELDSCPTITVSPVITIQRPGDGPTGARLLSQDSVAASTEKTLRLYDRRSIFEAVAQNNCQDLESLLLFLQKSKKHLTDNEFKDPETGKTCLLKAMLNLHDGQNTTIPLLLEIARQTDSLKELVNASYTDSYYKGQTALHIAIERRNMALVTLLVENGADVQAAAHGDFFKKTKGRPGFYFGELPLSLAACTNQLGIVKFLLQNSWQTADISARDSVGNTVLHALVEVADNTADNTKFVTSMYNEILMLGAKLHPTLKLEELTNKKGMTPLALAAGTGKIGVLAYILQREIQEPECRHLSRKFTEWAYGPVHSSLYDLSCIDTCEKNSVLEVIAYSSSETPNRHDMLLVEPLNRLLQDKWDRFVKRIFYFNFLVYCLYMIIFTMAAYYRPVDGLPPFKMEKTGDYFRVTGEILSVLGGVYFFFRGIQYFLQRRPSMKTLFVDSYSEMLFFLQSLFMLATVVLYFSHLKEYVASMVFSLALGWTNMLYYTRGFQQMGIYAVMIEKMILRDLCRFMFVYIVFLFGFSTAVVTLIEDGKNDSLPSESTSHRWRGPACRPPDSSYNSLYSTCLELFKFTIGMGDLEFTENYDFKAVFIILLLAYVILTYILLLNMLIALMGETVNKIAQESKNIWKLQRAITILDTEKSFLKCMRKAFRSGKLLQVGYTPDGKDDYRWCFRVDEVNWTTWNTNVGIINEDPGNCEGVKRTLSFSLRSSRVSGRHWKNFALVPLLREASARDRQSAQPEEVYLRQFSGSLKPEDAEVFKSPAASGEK
Briefly: Calcium mobilization assay, determination of antagonist activity. The format is cell-based. As to conditions: cells expressing human capsaicin receptor, capsaicin at EC50, FLUO-3 fluorescence; read-out: IC50 (antag.). The protocol:
(§1) A cDNA encoding full length human capsaicin receptor (SEQ ID NO: 1, 2 or 3 of U.S. Pat. No. 6,482,611) was subcloned in the plasmid pBK-CMV (Stratagene, La Jolla, Calif.) for recombinant expression in mammalian cells.
(§2) Human embryonic kidney (HEK293) cells were transfected with the pBK-CMV expression construct encoding the full length human capsaicin receptor using standard methods. The transfected cells were selected for two weeks in media containing G418 (400 μg/ml) to obtain a pool of stably transfected cells. Independent clones were isolated from this pool by limiting dilution to obtain clonal stable cell lines for use in subsequent experiments.
(§3) Cells transfected with expression plasmids (as described in Example 4) and thereby expressing human capsaicin receptor are seeded and grown to 70-90% confluency in FALCON black-walled, clear-bottomed 96-well plates (#3904, BECTON-DICKINSON, Franklin Lakes, N.J.). The culture medium is emptied from the 96 well plates and FLUO-3 AM calcium sensitive dye (Molecular Probes, Eugene, Oreg.) is added to each well (dye solution: 1 mg FLUO-3 AM, 440 μL DMSO and 440 μ20% pluronic acid in DMSO, diluted 1:250 in Krebs-Ringer HEPES (KRH) buffer (25 mM HEPES, 5 mM KCl, 0.96 mM NaH2PO4, 1 mM MgSO4, 2 mM CaCl2, 5 mM glucose, 1 mM probenecid, pH 7.4), 50 μl diluted solution per well). Plates are covered with aluminum foil and incubated at 37° C. for 1-2 hours in an environment containing 5% CO2. After the incubation, the dye is emptied from the plates, and the cells are washed once with KRH buffer, and resuspended in KRH buffer.
To measure the ability of a test compound to agonize or antagonize a calcium mobilization response in cells expressing capsaicin receptors to capsaicin or other vanilloid agonist, the EC50 of the agonist capsaicin is first determined. An additional 20 μl of KRH buffer and 1 μl DMSO is added to each well of cells, prepared as described above. 100 μl capsaicin in KRH buffer is automatically transferred by the FLIPR instrument to each well. Capsaicin-induced calcium mobilization is monitored using either FLUOROSKAN ASCENT (Labsystems; Franklin, Mass.) or FLIPR (fluorometric imaging plate reader system; Molecular Devices, Sunnyvale, Calif.) instruments. Data obtained between 30 and 60 seconds after agonist application are used to generate an 8-point concentration response curve, with final capsaicin concentrations of 1 nM to 3 μM. KALEIDAGRAPH software (Synergy Software, Reading, Pa.) is used to fit the data to the equation: […]
to determine the 50% excitatory concentration (EC50) for the response. In this equation, y is the maximum fluorescence signal, x is the concentration of the agonist or antagonist (in this case, capsaicin), a is the Emax, b corresponds to the EC50 value and c is the Hill coefficient.
Test compounds are dissolved in DMSO, diluted in 20 μl KRH buffer so that the final concentration of test compounds in the assay well is between 1 μM and 5 μM, and added to cells prepared as described above. The 96 well plates containing prepared cells and test compounds are incubated in the dark, at room temperature for 0.5 to 6 hours. It is important that the incubation not continue beyond 6 hours. Just prior to determining the fluorescence response, 100 μl capsaicin in KRH buffer at twice the EC50 concentration determined as described above is automatically added by the FLIPR instrument to each well of the 96 well plate for a final sample volume of 200 μl and a final capsaicin concentration equal to the EC50. The final concentration of test compounds in the assay wells is between 1 μM and 5 μM. […] The concentration of antagonist required to provide a 50% decrease, relative to the response observed in the presence of capsaicin and without antagonist, is the IC50 for the antagonist, and is preferably below 1 micromolar, 100 nanomolar, 10 nanomolar or 1 nanomolar.
As to `CC1CCCN1c1nc(-c2ccc(F)cc2)cc(-c2ccc(N3CCC(O)CC3)nc2)n1` (stereo not shown) [Compound 1, 1-{5-[6-(4-fluorophenyl)-2-(2-methylpyrrolidin-1-yl)pyrimidin-4-yl]pyridin-2-yl}piperidin-4-ol], the IC50 is less than 1000 nM. The same measure, in the same setting: with `CC1CCCN1c1nc(-c2ccc(F)cc2)cc(-c2ccc(N3CCC(C(=O)O)CC3)nc2)n1` (stereo not shown) [Compound 3, 1-{5-[6-(4-fluorophenyl)-2-(2-methylpyrrolidin-1-yl)pyrimidin-4-yl]pyridin-2-yl}piperidine-4-carboxylicacid] the figure was less than 1000 nM; with `Fc1ccc(-c2cc(-c3ccc(-c4ncccc4C(F)(F)F)nc3)nc(N3CCOCC3)n2)cc1Cl` [Compound 5, 5′-[6-(3-chloro-4-fluorophenyl)-2-morpholin-4-ylpyrimidin-4-yl]-3-(trifluoromethyl)-2,2′-bipyridine], less than 1000 nM; with `Cc1cccnc1-c1ccc(-c2cc(-c3ccc(F)c(Cl)c3)nc(N3CCOCC3)n2)cn1` [Compound 6, 5′-[6-(3-chloro-4-fluorophenyl)-2-morpholin-4-ylpyrimidin-4-yl]-3-methyl-2,2′-bipyridine], less than 1000 nM.

For the compound `Nc1nc(-c2ccc(-c3ncccc3C(F)(F)F)cc2)cc(-c2ccc(F)c(Cl)c2)n1` [Compound 8, 4-(3-chloro-4-fluorophenyl)-6-{4-[3(trifluoromethyl)pyridin-2-yl]phenyl}pyrimidin-2-amine], the IC50 is less than 1000 nM.

As to `Fc1ccc(-c2cc(-c3ccc(-c4ncccc4C(F)(F)F)cc3)nc(N3CCOCC3)n2)cc1Cl` [Compound 9, 4-(4-(3-chloro-4-fluorophenyl)-6-{4-[3-(trifluoromethyl)pyridin-2-yl]phenyl}pyrimidin-2-yl)morpholine], the IC50 was less than 1000 nM.

Another experiment has as its target T1, human capsaicin receptor. Briefly: Calcium mobilization assay, determination of agonist activity. The format is cell-based. As to conditions: cells expressing human capsaicin receptor, no capsaicin added, FLUO-3 fluorescence. As for the experimental part:
as §1, §2
as §3, with “After the incubation, the dye is emptied from the plates, and the cells are washed once with KRH buffer, and resuspended in KRH buffer.” left out
The ability of a test compound to act as an agonist of the capsaicin receptor is determined by measuring the fluorescence response of cells expressing capsaicin receptors elicited by the compound as function of compound concentration. […] The extent of efficacy of each test compound is also determined by calculating the response elicited by a concentration of test compound (typically 1 μM) relative to the response elicited by 100 nM capsaicin. This value, called Percent of Signal (POS), is calculated by the following equation: […]
(Calcium assays in cells follow changes in intracellular calcium, usually with a dye or a luminescent sensor.)
Turning to `CC1CCCN1c1nc(-c2ccc(F)cc2)cc(-c2ccc(N3CCC(O)CC3)nc2)n1` (stereo not shown) [Compound 1, 1-{5-[6-(4-fluorophenyl)-2-(2-methylpyrrolidin-1-yl)pyrimidin-4-yl]pyridin-2-yl}piperidin-4-ol], the EC50 was less than 1000 nM. Same read-out and setting: the same measure for `CC1CCCN1c1nc(-c2ccc(F)cc2)cc(-c2ccc(N3CCC(C(N)=O)CC3)nc2)n1` (stereo not shown) [Compound 4, 1-{5-[6-(4-fluorophenyl)-2-(2-methylpyrrolidin-1-yl)pyrimidin-4-yl]pyridin-2-yl}piperidine-4-carboxamide]: less than 1000 nM; for `CC1CCCN1c1nc(-c2ccc(F)cc2)cc(-c2ccc(N3CCC(CO)CC3)nc2)n1` (stereo not shown) [Compound 7, (1-{5-[6-(4-fluorophenyl)-2-(2-methylpyrrolidin-1-yl)pyrimidin-4-yl]pyridin-2-yl}piperidin-4-yl)methanol]: less than 1000 nM.

The target in the next experiment is VR (Homo sapiens, UniProt Q8NER1).
Chain of VR (Q8NER1 whole entry): as above
Test: not given
As to conditions: typically; no more than moderate affinity; cited from earlier work.
With `Cl.Cl.Cl.Cl.Cl.Cl.N.N.N.N.N.N.N.N.N.N.N.N.N.N.[O-2].[O-2].[Ru+3].[Ru+3].[Ru+4]` [ruthenium red], the inhibitory constant (Ki) is no less than 140 µM.
